Data taken from PubChem BioAssay (NCI).
“And” between values parts separate entries of the source, which are not always exact repeats. Equal values may be shown once.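 Tested at 5 concentrations; 48 h exposure; 96-well plates; endpoints linearly interpolated, else capped at highest concentration. At the GI50, growth is halved. The concentration for full growth arrest is given as TGI.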

Assays:
Assay in all cases: NCI anticancer screen, dose series, 48 h
A549 NSCLC = tested on: A549 NSCLC
NCI-H226 lung = tested on: NCI-H226 lung
NCI-H460 lung = tested on: NCI-H460 lung
RXF 393 renal = tested on: RXF 393 renal
SK-OV-3 ovarian = tested on: SK-OV-3 ovarian
UACC-62 melanoma = tested on: UACC-62 melanoma
HL-60(TB) leukemia = tested on: HL-60(TB) leukemia
MOLT-4 leukemia = tested on: MOLT-4 leukemia
NCI-H522 lung = tested on: NCI-H522 lung
SK-MEL-5 melanoma = tested on: SK-MEL-5 melanoma

| SMILES | TGI (A549 NSCLC) [µM] | TGI (NCI-H226 lung) [µM] | TGI (NCI-H460 lung) [µM] | TGI (RXF 393 renal) | TGI (SK-OV-3 ovarian) | TGI (UACC-62 melanoma) | TGI (HL-60(TB) leukemia) [µM] | TGI (MOLT-4 leukemia) | TGI (NCI-H522 lung) [µM] | TGI (SK-MEL-5 melanoma) | GI50 (A549 NSCLC) | GI50 (HL-60(TB) leukemia) | GI50 (MOLT-4 leukemia) | GI50 (NCI-H226 lung) | GI50 (NCI-H460 lung) | GI50 (NCI-H522 lung) | GI50 (RXF 393 renal) | GI50 (SK-MEL-5 melanoma) | GI50 (SK-OV-3 ovarian) | GI50 (UACC-62 melanoma) |
| --- | --- | --- | --- | --- | --- | --- | --- | --- | --- | --- | --- | --- | --- | --- | --- | --- | --- | --- | --- | --- |
| O=C(Cc1nc2ccccc2o1)C(=O)Nc1ccc(Cl)cc1Cl | > 100 | > 100 | > 100 | > 100 µM | > 100 µM | > 100 µM |  |  |  |  |  |  |  |  |  |  |  |  |  |  |
| COC(=O)C1=CCC2c3[nH]c4ccccc4c3CCN2C1 (configuration not stated) | > 354 | > 354 | > 354 | > 354 µM | > 354 µM | > 354 µM | > 354 | > 354 µM | > 354 | > 354 µM |  |  |  |  |  |  |  |  |  |  |
| Cc1cc(C)c(/C=N/NS(=O)(=O)c2ccccc2)c(C)c1 | > 100 | > 100 | > 100 | > 100 µM | > 100 µM | > 100 µM | > 100 | > 100 µM |  | > 100 µM |  |  |  |  |  |  |  |  |  |  |
| CCCCOC(=O)c1c(C)[nH]c(/C=C2\N=C(c3ccc[nH]3)C=C2OC)c1C | 15.2 | 1.72 | 2 | 3.07 µM | 14.4 µM | 0.339 µM | 4 | 9.85 µM | 1.68 | 0.265 µM | 0.205 µM | 0.581 µM | 0.138 µM | 0.31 µM | 0.0613 µM | 0.174 µM | 0.537 µM | 0.1 µM | 1.45 µM | 0.127 µM |
| N#C/C(=C\c1ccc[nH]1)C(=O)c1ccccc1 | > 100 | > 100 | > 100 | > 100 µM | > 100 µM | > 100 µM | > 100 | > 100 µM | > 100 | > 100 µM |  |  |  |  |  |  |  |  |  |  |
| CCc1ccccc1NC(=O)C(=O)C1C(=O)N(c2ccccc2)N=C1N (configuration not stated) | > 100 | > 100 | > 100 | > 100 µM |  | > 100 µM | > 100 | > 100 µM |  | > 100 µM |  |  |  |  |  |  |  |  |  |  |
| O=C(CCCn1ccnc1[N+](=O)[O-])NCCn1cnc([N+](=O)[O-])n1 | > 100 | > 100 | > 100 | > 100 µM | > 100 µM | > 100 µM | > 100 | > 100 µM | > 100 | > 100 µM |  |  |  |  |  |  |  |  |  |  |
| Fc1ccc(Nc2nc3nonc3nc2Nc2ccc(I)cc2)cc1 | 11.2 | 1.94 | 12.4 | 0.817 µM | 0.962 µM | 2.16 µM |  | 0.75 µM | 0.693 | 0.325 µM | 0.313 µM |  | 0.219 µM | 0.319 µM | 0.312 µM | 0.192 µM | 0.237 µM | 0.147 µM | 0.269 µM | 0.142 µM |
| CCCCCCCCCCCCCCCCCC[S+](C)CC (configuration not stated) |  | 7.58 |  |  | 5.45 µM |  | 3.8 |  |  |  |  | 1.17 µM |  | 2.08 µM |  |  |  |  | 1.86 µM |  |
| Cc1ccccc1-n1c(CCl)nc2ccc(Br)cc2c1=O | 44.9 | 28.4 | 28 | 26.8 µM | > 100 µM | 17.9 µM | 17 | 73.5 µM | 5.83 | 22.9 µM |  |  |  |  |  |  |  |  |  |  |
| NC1(C(=O)N[C@@H](CCO)c2ccc(Cl)cc2)CCN(c2ncnc3[nH]ccc23)CC1 | > 92.1 | > 83.4 | > 100 | 0.69 µM and 5.83 µM | > 3.09 µM and 38.5 µM | 4 µM and 23.7 µM | > 67.8 | > 10 µM and 21.5 µM | > 90.3 | > 5.59 µM and 62 µM | > 3.15 µM and 12 µM | > 4.63 µM and 24.2 µM | 0.505 µM and 0.644 µM | 2.14 µM and 7.92 µM | 0.679 µM and 1.74 µM | > 2.05 µM and 17.1 µM | 0.13 µM and 0.354 µM | > 3.51 µM and 19.1 µM | 0.306 µM and 0.842 µM | 0.608 µM and 1.85 µM |
| CC(=O)ON=C1C=CC(=C(C#N)c2ccccc2)C=C1 | > 36 | 9.36 |  | 11.5 µM | > 100 µM | 25.7 µM | 4.87 | > 100 µM | 2.48 | 17.7 µM | 3.09 µM | 1.11 µM | 2.86 µM | 2.88 µM | 1.51 µM | 0.383 µM | 2.68 µM | 2.36 µM | 6.41 µM | 3.78 µM |
| CN(C)CCCCNc1ccc(NCCCCN(C)C)c2c1C(=O)c1c(O)ccc(O)c1C2=O | 2.94 | 28.1 | 2.94 | 11.2 µM | 9.8 µM | 29.1 µM | 4.12 |  | 3.58 | 26.3 µM | 1.57 µM | 1.73 µM |  | 14.9 µM | 1.59 µM | 1.77 µM | 1.75 µM | 13.5 µM | 3.06 µM | 15.3 µM |
| COc1cc2c(cc1[N+](=O)[O-])C(=O)C(Br)(Br)CCC2 | > 46.6 | 10.7 | 20.1 | 4.51 µM | 9.41 µM | 10 µM | 21 | 5.95 µM | 2.37 | 3.77 µM |  |  |  |  |  |  |  |  |  |  |
| COc1ccc(/C=C/C(=O)/C=C(O)/C=C/c2ccc(OC)c(OC)c2)cc1OC | > 100 | > 100 | > 100 |  | > 100 µM | 38.3 µM |  | > 100 µM | 7.53 | 12.7 µM | 37.9 µM |  | 5.38 µM | 3.59 µM | 4.6 µM | 2.52 µM |  | 3.01 µM | > 100 µM | 10.8 µM |
| COC(=O)C1=CC(=O)[C@@H]2CCCC[C@H]12 | > 100 | > 100 | > 100 | > 100 µM | > 100 µM | > 100 µM | > 100 | > 100 µM | > 100 |  |  |  |  |  |  |  |  |  |  |  |
| Cc1cc(-c2cc(OC(=O)c3ccccc3)ccc2Cl)cc2nnc(Nc3ccc(OCCN4CCCC4)cc3)nc12 | 3.29 |  | 3.3 | 2.48 µM | 3.09 µM | 3.36 µM | 4.69 | 4.74 µM | 3.08 | 2.89 µM | 1.72 µM | 2.47 µM | 2.01 µM |  | 1.72 µM | 1.37 µM | 1.16 µM | 1.52 µM | 1.58 µM | 1.71 µM |
